Measured values taken from patent US9873667B2, “Arylsulfanyl compounds and compositions for delivering active agents” (EMISPHERE TECHNOLOGIES INC., priority 2006, dated 2018).

Tests used:
Blood glucose levels = assay: Oral delivery of insulin with delivery agent compound; blood glucose by glucometer; assay type: in vivo, male Sprague-Dawley rats
Procedure: Insulin stock solution (15 mg/ml) (Human zinc insulin, Calbiochem-Novabiochem Corp., La Jolla, Calif.) was prepared with deionized water. Oral dosing compositions containing 200 mg/kg of delivery agent compound and 0.5 mg/kg of insulin in aqueous solution were prepared with the delivery agent compound shown in Table 1 below. Either the sodium salt of the delivery agent compound was used or the free acid was converted to the sodium salt with one equivalent of sodium hydroxide.
The dosing solution was administered to fasted male Sprague-Dawley rats by oral gavage with an average weight of about 225-250 grams. Blood glucose levels were then determined by glucometer (One Touch Ultra®, LifeScan, Inc.) and compared to vehicle control (1 ml/kg of water). Samples were collected prior to dosing (time 0) and at 15, 30, 45 and 60 minutes after dosing. The % glucose reduction values in Table 1 are values found at the C minimum, and are an average % reduction with respect to the number of times the experiment was run for each delivery agent.
0.5 mg/kg of Insulin and 25-100 mg/kg of delivery agent compound (particular amount shown in Table 2 below) was administered to male Sprague-Dawley rats with an average weight of about 225-250 grams. The purpose of this test was to ascertain the dose response of the delivery agent compound. Glucose reduction was determined as set forth in connection with the data in Table 1.
Insulin Titrations were performed with Delivery Agent 29 in order to gauge the effect of varying dosages of insulin.

[1] = system: activated partial thromboplastin time (APTT); assay: Intracolonic delivery of heparin with delivery agent; clotting time (APTT); assay type: in vivo, male Sprague-Dawley rats; conditions: Delivery Agent 50 mg/kg, USP Heparin 25 mg/kg
Procedure: Oral gavage and/or intracolonic (IC) dosing solutions containing delivery agent compound and heparin sodium USP were prepared in 25% aqueous propylene glycol. Either the sodium salt of the delivery agent compound was used or the free acid was converted to the sodium salt with one equivalent of sodium hydroxide. The delivery agent compound and heparin (about 166-182 IU/mg) were mixed by vortex as dry powders. This dry mixture was dissolved in 25% v/v aqueous propylene glycol, vortexed, and placed in a sonicator (about 37° C.). The pH was adjusted to about 7 (6.5-8.5) with aqueous NaOH (2N). The dosing solution was sonicated to produce a clear solution. The final volume was adjusted to about 3.0 ml.
Male Sprague-Dawley rats weighing between about 275-350 g were fasted for 24 hours and anesthetized with ketamine hydrochloride (88 mg/kg) intramuscularly immediately prior to dosing and again as needed to maintain anesthesia. A dosing group of five animals were administered one of the dosing solutions. For oral gavage dosing, an 11 cm Rusch 8 French catheter was adapted to a 1 ml syringe with a pipette tip. The syringe was filled with dosing solution by drawing the solution through the catheter, which was then wiped dry. The catheter was placed down the esophagus leaving 1 cm of tubing past the incisors. The dosing solution was administered by pressing the syringe plunger.
For intracolonic (IC) dosing, a 7.5 cm, 8 French Rusch catheter was adapted to a 1 ml syringe with a pipette tip. The dosing catheter was inserted into the colon through the anus until the tube was no longer visible. The dosing solution was expressed slowly into the colon by pressing the syringe plunger.
Citrated blood samples were collected by cardiac puncture following the administration of ketamine (88 mg/kg), typically at 0.25, 0.5, 1.0 and 1.5 hours after dosing. Heparin absorption was verified by an increase in clotting time measured by the activated partial thromboplastin time (APTT) according to the method of Henry, J. B., Clinical Diagnosis and Management by Laboratory Methods, Philadelphia, Pa., W.B. Saunders (1979), which is hereby incorporated by reference. Previous studies indicated baseline values of about 20 seconds. Results from the animals in each group were averaged for each time points and the highest of these averages (i.e. mean peak APTT) is reported.

[2] = Oral delivery of LHRH with delivery agent; plasma LHRH concentration; assay type: in vivo, male Sprague-Dawley rats; conditions: Delivery Agent: 200 mg/kg, LHRH: 1 mg/kg
Procedure: Oral gavage dosing solutions of delivery agent compound and LHRH in phosphate buffer were prepared by mixing. A solution of the delivery agent compound was made either with the sodium salt of the delivery agent compound or by converting the free acid to its sodium salt. A solution of the delivery agent compound was prepared in phosphate buffer and stirred, adding one equivalent of sodium hydroxide (1.0 N) when making the sodium salt. The final dosing solutions were prepared by mixing the delivery agent compound solution with a LHRH stock solution (2.75 ml with a concentration of 20 mg/ml in aqueous solution). The pH was adjusted, if necessary, to between about 7 and 8.8.
Male Sprague-Dawley rats weighing between about 250-300 g were fasted for 24 hours. A dosing group of five animals was administered one of the dosing solutions. An 11 cm Rusch 8 French catheter was adapted to a 1 ml syringe with a pipette tip. The syringe was filled with the dosing solution by drawing the solution through the catheter, which was then wiped dry. The catheter was placed down the esophagus leaving 1 cm of tubing past the incisors. The dosing solution was administered by pressing the syringe plunger.
Blood samples were collected through retroorbital bleeding of approximately 0.4 ml of blood volume using EDTA tubes at time=0 (pre-dose), 2, 10, 15 and 30 minutes. The five samples from each time period were pooled. Previous studies indicated baseline values of about zero. The maximum absorption at the Tmax is reported below in Table 7. As controls, 4-(3-methyl phenoxy) butyric acid (D.A. “B”), the mesylate salt of (4-(8-(2-hydroxyphenoxy)octyl) morpholine (D.A. “C”), 4-(4-(2-hydroxyphenoxy)butyl) morpholine (D.A. “D”), and 4-(6-(2-hydroxyphenoxy)hexyl) morpholine (D.A. “E”) were also administered according to the same protocol and their results are also shown in FIG. 6.

[3] = Oral delivery of heparin with delivery agent; plasma heparin concentration; assay type: in vivo, male Sprague-Dawley rats; conditions: Delivery Agent 200 mg/kg, Heparin 80 mg/kg
[4] = Oral delivery of caspofungin acetate with delivery agent; plasma caspofungin acetate concentration; assay type: in vivo, male Sprague-Dawley rats; conditions: Delivery Agent 200 mg/kg, caspofungin acetate: 25 mg/kg
Procedure: Oral gavage dosing solutions of delivery agent compound and caspofungin acetate (Merck & Co., Whitehouse Station, N.J.) in phosphate buffer were prepared by mixing. A solution of the delivery agent compound was made either with the sodium salt of the delivery agent compound or by converting the free acid to its sodium salt. A solution of the delivery agent compound was prepared in phosphate buffer and stirred, adding one equivalent of sodium hydroxide (1.0 N) when making the sodium salt. The final dosing solutions were prepared by mixing the delivery agent compound solution with a caspofungin acetate stock solution (2.5 ml with a concentration of 100 mg/ml in aqueous solution). The pH was adjusted, if necessary, to between about 7 and 8.8. Male Sprague-Dawley rats weighing between about 250-300 g were fasted for 24 hours. A dosing group of five animals was administered one of the dosing solutions. An 11 cm Rusch 8 French catheter was adapted to a 1 ml syringe with a pipette tip. The syringe was filled with the dosing solution by drawing the solution through the catheter, which was then wiped dry. The catheter was placed down the esophagus leaving 1 cm of tubing past the incisors. The dosing solution was administered by pressing the syringe plunger. Blood samples were collected through retroorbital bleeding at time=0 (pre-dose), 15, 30, 60, 240, and 480 minutes. […]

[5] = oral gavage, 200 mg/kg Delivery Agent Compound, 0.5 mg/kg Insulin, value at C minimum vs vehicle control

Compound	% Glucose Reduction (Blood glucose levels; [5])	APTT (mean peak) [1]	Tmax ([1]; time of peak APTT)	Tmax [2]	melting point	% Glucose Reduction (Blood glucose levels; dose response, Delivery Agent Compound 25 mg/kg, Insulin 0.5 mg/kg)	Tmax [3]	% Glucose Reduction (Blood glucose levels; dose response, Delivery Agent Compound 50 mg/kg, Insulin 0.5 mg/kg)	% Glucose Reduction (Blood glucose levels; dose response, Delivery Agent Compound 100 mg/kg, Insulin 0.5 mg/kg)	Tmax [4]
COc1ccccc1SCCCCCCCC(=O)O [Compound 1, 8-(2-Methoxy-phenylsulfanyl)-octanoic acid]	−0.2%	180 s	30 min	5 min	62 to 63 °C	–	–	–	–	–
Cc1ccc(C)c(SCCCCCCCC(=O)O)c1 [Compound 2, 8-(2,5-Dimethyl-phenylsulfanyl)-octanoic acid]	–	–	–	–	60 to 63 °C	−10.0%	45 min	–	–	–
Cc1ccc(C)c(SCCCCCC(=O)O)c1 [Compound 6, 6-(2,5-Dimethyl-phenylsulfanyl)-hexanoic acid]	−9.8 ± 30.4%	–	–	5 min	61 to 62 °C	–	15 min	−15.8%	−19.2%	–
Cc1ccc(C)c(SCCCC(=O)O)c1 [Compound 7, 4-(2,5-Dimethyl-phenylsulfanyl)-butyric acid]	–	–	–	5 min	61 to 62 °C	–	60 min	–	–	–
COc1ccc(SCCCCC(=O)O)cc1 [Compound 14, 5-(4-Methoxy-phenylsulfanyl)-pentanoic acid]	–	–	–	–	–	–	–	–	–	60 min
